Data: publication PMC11207040, “Synthesis and Biological Studies of New Temporin A Analogs Containing Unnatural Amino Acids in Position 7” (Pharmaceutics, 2024)
In brackets after ≈: the same amount, converted by molar mass. Non-standard residues stand in square brackets, D forms with d. Residues, ends and D or L forms follow the SMILES beside them. Dab = NCC[C@H](N)C(=O)O

Legend:
[1] = 3T3 NRU cytotoxicity/phototoxicity test; format: cell-based, mouse; details: mouse; for CC50: cytotoxicity, no irradiation, BALB 3T3 clone A31, Neutral Red uptake, read-out: Mean CC50 ± SD, −Irr; for CC50 at 24 h: phototoxicity, irradiated 2.4 J/cm^2, BALB 3T3 clone A31, Neutral Red uptake, read-out: Mean CC50 ± SD, +Irr
Description: (§1) The cell lines BALB 3T3 (mouse embryonic fibroblasts) and MCF-12F (human breast epithelial cells) were used as models for healthy tissue. The MCF-7 and MDA-MB-231 cell lines were used as in vitro models for luminal A- and basal B-type breast cancer, respectively. Cell lines were obtained from the American Type Cultures Collection (ATCC, Manassas, VA, USA). Cells were cultured in Dulbecco modified Eagle’s medium (DMEM) supplemented with 10% fetal bovine serum (FBS), 100 U/mL penicillin, and 0.1 mg/mL streptomycin (Sigma-Aldrich, Schnelldorf, Germany) in an incubator at 37 °C, 5% CO2 and 95% humidity. Plastic flasks 75 cm^2 (Biologix, Lenexa, KS, USA) were used to grow the cells.
(§2) The cytotoxicity/phototoxicity testing was performed as described by the OECD Guidelines for the Testing of Chemicals, Section 4, Test No. 432: In Vitro 3T3 NRU Phototoxicity Test. BALB 3T3, clone A31 cells were grown in 75 cm^2 tissue culture flasks in DMEM high-glucose (4.5 g/L), 10% FBS, and antibiotics at 37.5 °C, in a humidified atmosphere under 5% CO2. Cells were plated at 1 × 10^4 cells / 100 μL culture medium in each well of 96-well microplates and allowed to adhere for 24 h before treatment with test compounds. Peptides were dissolved in DMSO and diluted with culture medium to working concentrations from 4 to 1000 μM. In phototoxicity tests, 96-well plates were irradiated (+Irr) with a dose of 2.4 J/cm^2 using an artificial solar light simulator Helios-iO (SERIC Ltd., Tokyo, Japan), and the cells were incubated for an additional 24 h. After treatment with a Neutral Red medium, washing, and application of the NR Desorb solution, the absorption was measured on a microplate reader at a wavelength of 540 nm. Cytotoxicity/phototoxicity was expressed as CC50 values (concentrations required for 50% cytotoxicity).

[2] = tested on: BALB 3T3 clone A31 cells; assay: 3T3 NRU cytotoxicity/phototoxicity test; format: cell-based, mouse; details: PIF = CC50 −Irr/CC50 +Irr; PIF < 2 = not phototoxic
Description: as §1, §2

[3] = tested on: MCF-7 cells; assay: MTT antiproliferative assay, MCF-7; format: cell-based, human; details: for IC50: MTT, 72 h, read-out: Mean IC50 ± SD, MCF-7; for SI (Selectivity Index), MCF-7: SI = IC50 MCF-12F/IC50 tumor cells;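 on SI (Selectivity Index), MCF-7: numerator is the IC50 in non-tumorigenic MCF-12F cells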
Description: as §1
(§3) The antiproliferative activity testing was performed on cell cultures using the MTT-dye reduction assay. This assay is based on the metabolism of MTT to insoluble formazan by mitochondrial reductases. The formazan concentration can be determined spectrophotometrically. The measured absorption is an indicator of cell viability. Cell lines (MCF-12F, MCF-7 and MDA-MB-231) were used in the experiments. Cells were plated at a density of 1 × 10^3 cells/100 µL in each well of 96-well microplates and allowed to adhere for 24 h before treatment with test compounds. A concentration range from 4 to 1000 μM was applied for 72 h. The formazan absorption was registered using a microplate reader at λ = 540 nm. Antiproliferative activities were expressed as IC50 values (concentrations required for 50% inhibition of cell growth).

[4] = tested on: MDA-MB-231 cells; assay: MTT antiproliferative assay, MDA-MB-231; format: cell-based, human; details: for IC50: MTT, 72 h, read-out: Mean IC50 ± SD, MDA-MB-231; for SI (Selectivity Index), MDA-MB-231: SI = IC50 MCF-12F/IC50 tumor cells;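 on SI (Selectivity Index), MDA-MB-231: numerator is the IC50 in non-tumorigenic MCF-12F cells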
Description: as §1, §3

[5] = tested on: Arthrobacter oxydans NBIMCC 9333; format: cell-based; details: broth dilution, 0 to 320 µg/mL, 24 h; NI = no inhibition monitored
Description: (§4) The parent peptide Temporin A and the novel analogs were subjected to tests against model strains Escherichia coli NBIMCC 8785, Bacillus subtilis NBIMCC 3562, Arthrobacter oxydans NBIMCC 9333, Pseudomonas aeruginosa NBIMCC 3700, and Candida albicans NBIMCC 74, for the assessment of their antimicrobial activity. The strains were acquired from the National Bank for Industrial Microorganisms and Cell Cultures (NBIMCC, Bulgaria). The strain E. coli 8785 was cultured in Luria-Bertani broth (LB, HiMedia, Mumbai, India); B. subtilis 3562—in nutrient broth (NB, HiMedia, Mumbai, India); A. oxydans 9333; P. aeruginosa 3700—in meat peptone agar (MPA) medium; and C. albicans 74—in yeast mold (YM) medium. An incubator shaker ES-20/60 (Biosan, Latvia) was used for the cultivation and was set to 30 °C for B. subtilis 3562, A. oxydans 9333, and C. albicans 74; and 37 °C for E. coli 8785 and P. aeruginosa 3700, with a 24 h shaking period at 120 rpm. The microbial cultures were then adjusted to a turbidity of 0.5 McFarland using a Grant-bio DEN-1B densitometer (Grant Instruments, Royston, UK) for further use.
(§5) The minimal inhibitory concentration (MIC) of the peptides was determined using the broth dilution method. Stock solutions of the peptides with a concentration of 10 mg/mL in 10% EtOH/H2O were prepared. Suspensions of the bacteria in the corresponding media were added to 96-well U-shaped bottom polystyrene plates (Deltalab S.L., Spain) and exposed to the peptide in the concentration range from 0 to 320 µg/mL, and a 10% EtOH/H2O control, diluted using the same scheme as the peptides, was also used. The plates were then incubated under aerobic conditions at the corresponding temperature for 24 h. The MIC (µg/mL) was assumed as the lowest concentration of the antimicrobial, where there was visible inhibition of the strain. The absorbance was measured at 630 nm (Microplate reader PKL PPC 142, Paramedical srl, Salerno, Italy). To determine the minimal bactericidal concentration (MBC) and minimal fungicidal concentration (MFC), 10 μL from concentrations greater than or equal to the MIC was placed on the corresponding solid nutrient medium. The Petri dishes were then incubated at 30 or 37 °C for 24 h. All experiments were conducted in a triplicate.

[6] = tested on: Bacillus subtilis NBIMCC 3562; format: cell-based; details: broth dilution, 0 to 320 µg/mL, 24 h; NI = no inhibition monitored
Description: as §4, §5

[7] = tested on: Escherichia coli NBIMCC 8785; format: cell-based; details: broth dilution, 0 to 320 µg/mL, 24 h; NI = no inhibition monitored
Description: as §4, §5

[8] = tested on: Pseudomonas aeruginosa NBIMCC 3700; format: cell-based; details: broth dilution, 0 to 320 µg/mL, 24 h; NI = no inhibition monitored
Description: as §4, §5

With `CC[C@H](C)[C@H](NC(=O)CNC(=O)[C@H](CO)NC(=O)[C@H](CC(C)C)NC(=O)[C@@H](NC(=O)[C@H](CCN)NC(=O)CNC(=O)[C@@H](NC(=O)[C@H](CC(C)C)NC(=O)[C@@H]1CCCN1C(=O)[C@H](CC(C)C)NC(=O)[C@@H](N)Cc1ccccc1)[C@@H](C)CC)C(C)C)C(=O)N[C@@H](CC(C)C)C(N)=O` [DTDab, FLPLIG-Dab-VLSGIL-NH2] (H-FLPLIG[Dab]VLSGIL-NH2; N-terminus assumed) the CC50 [1] was 210 ± 6.69 µM, the CC50 at 24 h [1] was 207 ± 7.41 µM and the “PIF (photo irritation factor)” value [2] was 1.01. For the same compound, the IC50 [3] was 157 ± 4.97 µM, the “SI (Selectivity Index), MCF-7” value [3] was 1.78 and the IC50 [4] was 174.9 ± 1.35 µM. The “SI (Selectivity Index), MDA-MB-231” value [4] was 1.60, the “MIC, A. oxydans 9333” value [5] was 320 µg/mL (≈ 239 µM) and the “MIC, B. subtilis 3562” value [6] was 160 µg/mL (≈ 119 µM). The “MIC, E. coli 8785” value [7] was 320 µg/mL (≈ 239 µM) and the “MIC, P. aeruginosa 3700” value [8] was 320 µg/mL (≈ 239 µM).

For `CC[C@H](C)[C@H](NC(=O)CNC(=O)[C@H](CO)NC(=O)[C@H](CC(C)C)NC(=O)[C@@H](NC(=O)[C@H](CCCCN)NC(=O)CNC(=O)[C@@H](NC(=O)[C@H](CC(C)C)NC(=O)[C@@H]1CCCN1C(=O)[C@H](CC(C)C)NC(=O)[C@@H](N)Cc1ccccc1)[C@@H](C)CC)C(C)C)C(=O)N[C@@H](CC(C)C)C(N)=O` [DTF, FLPLIG-K-VLSGIL-NH2, reference compound] (H-FLPLIGKVLSGIL-NH2), the CC50 [1] was 92.4 ± 2.82 µM, the CC50 at 24 h [1] was 88.4 ± 1.48 µM and the “PIF (photo irritation factor)” value [2] was 1.05. The IC50 [3] was 49.8 ± 1.9 µM, the “SI (Selectivity Index), MCF-7” value [3] was 2.02 and the IC50 [4] was 77 ± 2.92 µM. The “SI (Selectivity Index), MDA-MB-231” value [4] was 1.30, the “MIC, A. oxydans 9333” value [5] was 80 µg/mL (≈ 58.4 µM) and the “MIC, B. subtilis 3562” value [6] was 80 µg/mL (≈ 58.4 µM). The “MIC, E. coli 8785” value [7] was 320 µg/mL (≈ 234 µM) and the “MIC, P. aeruginosa 3700” value [8] was 160 µg/mL (≈ 117 µM).
